Measurements: ChEMBL document CHEMBL3045810, “Synthesis and evaluation of 4-(substituted)-acetylamino-3-mercapto-5-(4-substituted) phenyl-1,2,4-triazole derivatives as antimicrobial agents” (2012)
Calls of active or inactive are those of the source. The calls are words filed in the database; no cut-off is given here.

How the values were obtained:
Candida albicans [1] = test: Antifungal activity against Candida albicans MTCC 227 at 70 ug/ml by paper disk diffusion method; format: functional; conditions: read-out: DIZ
Staphylococcus aureus [2] = test: Antibacterial activity against Staphylococcus aureus ATCC 25923 at 30 ug/ml after 24 hr by paper disk diffusion method; format: functional; conditions: ATCC 25923, 24 h, read-out: DIZ
Pseudomonas aeruginosa [3] = test: Bactericidal activity against Pseudomonas aeruginosa ATCC 27853; format: functional, organism-based
Escherichia coli [4] = test: Antibacterial activity against Escherichia coli ATCC 8793 at 50 ug/ml after 24 hr by paper disk diffusion method; format: functional; conditions: ATCC 8793, 24 h, read-out: DIZ
Candida albicans [5] = test: Antifungal activity against Candida albicans MTCC 227 at 50 ug/ml by paper disk diffusion method; format: functional; conditions: read-out: DIZ
Fusarium oxysporum [6] = test: Antifungal activity against Fusarium oxysporum MTCC 2087 at 70 ug/ml by paper disk diffusion method; format: functional; conditions: read-out: DIZ
Pseudomonas aeruginosa [7] = test: Antibacterial activity against Pseudomonas aeruginosa ATCC 27853 at 30 ug/ml after 24 hr by paper disk diffusion method; format: functional; conditions: ATCC 27853, 24 h, read-out: DIZ
Aspergillus niger [8] = test: Antifungal activity against Aspergillus niger MTCC 3323 at 50 ug/ml by paper disk diffusion method; format: functional; conditions: read-out: DIZ
Candida albicans [9] = test: Antifungal activity against Candida albicans MTCC 227 at 30 ug/ml by paper disk diffusion method; format: functional; conditions: read-out: DIZ
Bacillus subtilis [10] = test: Bactericidal against Bacillus subtilis ATCC 6633; format: functional, organism-based
Pseudomonas aeruginosa [11] = test: Antibacterial activity against Pseudomonas aeruginosa ATCC 27853 at 50 ug/ml after 24 hr by paper disk diffusion method; format: functional; conditions: ATCC 27853, 24 h, read-out: DIZ
Staphylococcus aureus [12] = test: Antibacterial activity against Staphylococcus aureus ATCC 25923 at 50 ug/ml after 24 hr by paper disk diffusion method; format: functional; conditions: ATCC 25923, 24 h, read-out: DIZ
Candida albicans [13] = test: Fungicidal activity against Candida albicans MTCC 227; format: functional, organism-based
Escherichia coli [14] = test: Antibacterial activity against Escherichia coli ATCC 8793 at 70 ug/ml after 24 hr by paper disk diffusion method; format: functional; conditions: ATCC 8793, 24 h, read-out: DIZ
Aspergillus niger [15] = test: Antifungal activity against Aspergillus niger MTCC 3323 at 70 ug/ml by paper disk diffusion method; format: functional; conditions: read-out: DIZ
Fusarium oxysporum [16] = test: Antifungal activity against Fusarium oxysporum MTCC 2087 at 50 ug/ml by paper disk diffusion method; format: functional; conditions: read-out: DIZ
Bacillus subtilis [17] = test: Antibacterial activity against Bacillus subtilis ATCC 6633 at 50 ug/ml after 24 hr by paper disk diffusion method; format: functional; conditions: ATCC 6633, 24 h, read-out: DIZ
Fusarium oxysporum [18] = test: Fungicidal activity against Fusarium oxysporum MTCC 2087; format: functional, organism-based
Staphylococcus aureus [19] = test: Antibacterial activity against Staphylococcus aureus ATCC 25923 at 70 ug/ml after 24 hr by paper disk diffusion method; format: functional; conditions: ATCC 25923, 24 h, read-out: DIZ
Bacillus subtilis [20] = test: Antibacterial activity against Bacillus subtilis ATCC 6633 at 30 ug/ml after 24 hr by paper disk diffusion method; format: functional; conditions: ATCC 6633, 24 h, read-out: DIZ
Escherichia coli [21] = test: Antibacterial activity against Escherichia coli ATCC 8793 at 30 ug/ml after 24 hr by paper disk diffusion method; format: functional; conditions: ATCC 8793, 24 h, read-out: DIZ
Aspergillus niger [22] = test: Antifungal activity against Aspergillus niger MTCC 3323 at 30 ug/ml by paper disk diffusion method; format: functional; conditions: read-out: DIZ
Staphylococcus aureus [23] = test: Bactericidal activity against Staphylococcus aureus ATCC 25923; format: functional, organism-based
Pseudomonas aeruginosa [24] = test: Antibacterial activity against Pseudomonas aeruginosa ATCC 27853 at 70 ug/ml after 24 hr by paper disk diffusion method; format: functional; conditions: ATCC 27853, 24 h, read-out: DIZ
Bacillus subtilis [25] = test: Antibacterial activity against Bacillus subtilis ATCC 6633 at 70 ug/ml after 24 hr by paper disk diffusion method; format: functional; conditions: ATCC 6633, 24 h, read-out: DIZ
Aspergillus niger [26] = test: Fungicidal activity against Aspergillus niger MTCC 3323; format: functional, organism-based
Escherichia coli [27] = test: Bactericidal activity against Escherichia coli ATCC 8793; format: functional, organism-based
Fusarium oxysporum [28] = test: Antifungal activity against Fusarium oxysporum MTCC 2087 at 30 ug/ml by paper disk diffusion method; format: functional; conditions: read-out: DIZ

| SMILES | zone of inhibition at 70 µg/mL (Candida albicans [1]) | zone of inhibition at 30 µg/mL (Staphylococcus aureus [2]) | Activity (Pseudomonas aeruginosa [3]) | zone of inhibition at 50 µg/mL (Escherichia coli [4]) | zone of inhibition at 50 µg/mL (Candida albicans [5]) | zone of inhibition at 70 µg/mL (Fusarium oxysporum [6]) | zone of inhibition at 30 µg/mL (Pseudomonas aeruginosa [7]) | zone of inhibition at 50 µg/mL (Aspergillus niger [8]) | zone of inhibition at 30 µg/mL (Candida albicans [9]) | Activity (Bacillus subtilis [10]) | zone of inhibition at 50 µg/mL (Pseudomonas aeruginosa [11]) | zone of inhibition at 50 µg/mL (Staphylococcus aureus [12]) | Activity (Candida albicans [13]) | zone of inhibition at 70 µg/mL (Escherichia coli [14]) | zone of inhibition at 70 µg/mL (Aspergillus niger [15]) | zone of inhibition at 50 µg/mL (Fusarium oxysporum [16]) | zone of inhibition at 50 µg/mL (Bacillus subtilis [17]) | Activity (Fusarium oxysporum [18]) | zone of inhibition at 70 µg/mL (Staphylococcus aureus [19]) | zone of inhibition at 30 µg/mL (Bacillus subtilis [20]) | also measured |
| --- | --- | --- | --- | --- | --- | --- | --- | --- | --- | --- | --- | --- | --- | --- | --- | --- | --- | --- | --- | --- | --- |
| CCN(CC)CC(=O)Nn1c(S)nnc1-c1ccc(C)cc1 | 9.23 mm | 6.36 mm | Active | 8.4 mm | 8.7 mm | 7.33 mm | 7.3 mm | 9.23 mm | 7.13 mm | Active | 8.4 mm | 7.4 mm | inactive | 9 mm | 10.2 mm | 6.23 mm | 7.43 mm | inactive | 8.2 mm | 6.4 mm | zone of inhibition at 30 µg/mL (Escherichia coli [21]): 7.3 mm; zone of inhibition at 30 µg/mL (Aspergillus niger [22]): 8.2 mm; Activity (Staphylococcus aureus [23]): Active; zone of inhibition at 70 µg/mL (Pseudomonas aeruginosa [24]): 9 mm; zone of inhibition at 70 µg/mL (Bacillus subtilis [25]): 8.26 mm; Activity (Aspergillus niger [26]): inactive; Activity (Escherichia coli [27]): Active; zone of inhibition at 30 µg/mL (Fusarium oxysporum [28]): 6.03 mm |
| CCCCCN(CCCCC)CC(=O)Nn1c(S)nnc1-c1ccc(OC)cc1 | 12.2 mm | 7.2 mm | Active | 9.26 mm | 11.3 mm | 8.2 mm | 6.23 mm | 12.2 mm | 10.1 mm | Active | 7.13 mm | 8.13 mm | inactive | 10.2 mm | 13 mm | 7.21 mm | 7.26 mm | inactive | 9.16 mm | 6.13 mm | zone of inhibition at 30 µg/mL (Escherichia coli [21]): 8.97 mm; zone of inhibition at 30 µg/mL (Aspergillus niger [22]): 11.2 mm; Activity (Staphylococcus aureus [23]): Active; zone of inhibition at 70 µg/mL (Pseudomonas aeruginosa [24]): 8.1 mm; zone of inhibition at 70 µg/mL (Bacillus subtilis [25]): 8.03 mm; Activity (Aspergillus niger [26]): inactive; Activity (Escherichia coli [27]): Active; zone of inhibition at 30 µg/mL (Fusarium oxysporum [28]): 6.17 mm |
